From patent US20120277265A1, “NOVEL POLYQUINOLINE DERIVATIVES AND THE THERAPEUTIC USE THEREOF” (CENTRE NATIONAL DE LA RECHERCHE SCIENTIFIQUE (C.N.R.S.), priority 2005, published 2012)
Like-named read-outs stand apart in the source and are kept apart here.

What was measured:
[1] = Competition reaction between ligand (Ls), ZnCl2 and competing chelator (Lc), UV-visible; affinity constants; type: binding; conditions: for % MLs: Zn(II), EDTA as Lc, 1/1/1 at 15 μM
Experimental: An organic solvent (CH3OH, dioxane or DMSO) was added in order to achieve good solubility of all the ligands and metal complexes in the concentrations used in these experiments.
As the concentration [MLs]=x % of C is measured on the UV-visible spectra, the concentrations [Ls]=(1−x) % of C, [MLc]=(1−x) % of C and [Lc]=x % of C can be deduced therefrom and:
In these conditions, [MLs]=[MLc]; [MLs]+[Lc]=Y, y≧50 and:
When log Ks 6, these equations are not used since the percentages of metal ion which is free in the solution or chelated by the solvent or the buffer are not negligible.

[2] = UV-visible spectrophotometric titration with ZnCl2 (metal/ligand stoichiometry); type: binding; conditions: 15 μM ligand; Tris-HCl buffer pH 7.4/organic solvent, per ligand as in Table 3 column Solvent
Experimental: An organic solvent (CH3OH, dioxane or DMSO) was added in order to achieve good solubility of the ligands and metal complexes in the concentrations used in these experiments. Exact proportions of the organic solvent/buffer mixture are specified for each UV-visible characterisation of the different ligands or metal complexes.
Aliquot portions of concentrated CuCl2 or ZnCl2 solutions (M) are added to a 15 μM ligand solution so as to induce only negligible variations in volume. After each addition, changes in absorption spectra are observed immediately and are consistent between two additions, which corresponds to a rapid complexing process. The exact absorption values relating to each ligand and the copper(II) or zinc(II) complexes thereof are detailed hereinafter in the Experimental part (in the Synthesis part for ligands and hereinafter for the metal complexes).
The stoichiometry of the different ligands (L) for Cu(II) or ZN(II) have therefore been determined spectrophotometrically by metal ion titration. In this example, for an M/L ratio increasing from 0 to 1, π→π* with transition, centred at 251 nm for the free ligand, is shifted to a lower energy with a concomitant appearance of an absorption band in the visible region of the spectrum (λmax to 383 nm), which is probably the result of an MLCT transition. For greater M/L ratios, no additional change in the UV-visible absorption spectra is observed.

[3] = system: copper complexes of Aβ1-42 peptide; experiment: Stability of H2O2 during the H2O2 production inhibition experiments (known amount of H2O2 added); type: biochemical; conditions: for theoretical value of H2O2 if there is no degradation (in parentheses): ascorbate, ligand; for H2O2 assayed: no Aβ1-42, Cu(II) 0.4 μM, ligand 0.4 μM
Experimental: (§1) The final concentrations are given. The reactions were carried out in the dark in mM sodium phosphate buffer (pH=7.4). Aβ1-42 (0.2 μM) and CuCl2 (0.4 μM) were pre-incubated for 1 hour at 37° C. while stirring at 1,400 rpm in 375 μl of buffer. Then 2 μl of a solution of ligand to be investigated (0.2; 0.4 or 0.8 μM) in DMSO were added. After incubation for a further hour, 2 μl of an aqueous sodium ascorbate solution (10 μM) were added and incubation was continued for 5 min while stirring. The amount of H2O2 produced is then quantified using an Amplex Red H2O2/HRP Assay Kit (Molecular Probes) while adding a volume of assay reagent to the samples, then incubating them for 1 hour at 37° C. while stirring at 500 rpm. H2O2 is then detected by spectrophotometry at 563 nm. Quantification is carried out on the basis of standard curves obtained with known amounts of H2O2.
(§2) Experiments were also carried out in the presence of a known amount of H2O2, added just before or just after the addition of sodium ascorbate, in order to investigate the stability of H2O2 under the experimental conditions employed.

[4] = target: T1, copper complexes of Aβ1-42 peptide (Homo sapiens, UniProt P05067); experiment: as above; type: biochemical; conditions: Aβ1-42 0.2 μM, Cu(II) 0.4 μM, ascorbate 10 μM, ligand 0.4 μM
T1 construct: The β-amyloid peptide Aβ1-42 (Aβ1-42) was synthesised, purified (to a purity greater than 95%); made in house; host or cells: chemical peptide synthesis (no expression host)
Experimental: as §1, §2

[5] = Determination of log D7.4 (1-octanol / Tris-HCl buffer); type: physicochemical; conditions: 1-octanol / 20 mM Tris-HCl buffer containing 150 mM NaCl (pH = 7.4) (1/1, v/v)
Summary of the method: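 Ligand partitioned between 1-octanol and 20 mM Tris-HCl pH 7.4 with 150 mM NaCl: vortexed 3 min at ambient temperature, centrifuged, each phase quantified by UV-visible spectrophotometry. log D7.4 is log of octanol/buffer concentration ratio, measured three times.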

[6] = system: Salmonella tiphimurium TA98; experiment: AMES test, TA98
From the text: AMES test: The method is adapted from D. M. Maron and B. N. Ames, Mutat.
The test involves evaluating the potential of the tested molecules to induce mutation which is reverse to the histidine locus of these lines. These two lines were provided by Dr. Bruce N. Ames (University of California, Berkeley, USA). They are resistant to Ampicillin and sensitive to Tetracycline. They are not mutant toward rfa, UvγV and UvγA. The line TA98 (his D3052) contains a mutation of reading phase (GC) whereas the line TA100 (his G46) contains a substitution of base pair (GC).
The compounds to be tested were dissolved in 100% of DMSO (the solvent) and diluted logarithmically (by a factor of 10) so as to obtain 4 test concentrations of 30,000; 3,000; 300 and 30 μg/ml. Each series of 0.1 ml of stock solution to be tested, 0.1 ml of test line and of culture medium with or without 0.5 ml of enzymatic homogenate (S9) of rat liver microsome were mixed with 2 ml of molten agarose (containing 0.5 mM of histidine and 0.5 mM of biotin). This mixture was placed on the surface of a plate of minimal agarose glucose medium (30 ml for each Petri dish) so as to obtain final concentrations of compound to be tested of 3,000; 300; 30 and 3 μγ/plate. The plates were then incubated at 37° C. for 48 hours. […] The revertant colonies of the test lines were counted using a colony counter (Sigma). […] A compound inducing a number of colonies <50% of cells obtained for the solvent alone was deemed to be toxic for the bacteria tested. All the experiments were carried out in triplicate.

[7] = Ls/ZnCl2/Lc 1/1/1 at 15 μM, solvent per ligand as in Table 3
[8] = Aβ1-42 0.2 μM, Cu(II), 3.0 nanomoles H2O2 added just after ascorbate
[9] = 3.0 nanomoles H2O2 added just after ascorbate
[10] = value per plate, Addition of S9: no
[11] = value per plate, Addition of S9: yes

T1 sequence (P05067 672-713 limits assumed, one chain of several): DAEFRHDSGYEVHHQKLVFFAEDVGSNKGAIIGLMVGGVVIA

Compound | percentage of ZnLs species at equilibrium, competing ligand EDTA [1, 7] | Complex observed by titration with Zn^II (observed L/Zn(II) stoichiometry) [2] | theoretical value of H2O2 if there is no degradation (in parentheses) [3, 8] | H2O2 assayed [4, 9] | H2O2 assayed ([4]; no H2O2 added) | log D7.4 [5] | TA98 Cytotoxicity [6, 10] | TA98 Cytotoxicity [6, 11] | logD at 3 min [5] | TA98 Mutagenic effect [6, 10] | TA98 Mutagenic effect [6, 11] | other results
O=C(c1ccc2cccc(O)c2n1)c1ccc2cccc(O)c2n1 [Compound 6, Bis(8-hydroxy-2-quinoline)methanone] | 75% | LZn^II(1/1) | 3.9 nmol | 3.6 nmol | 0.87 ± 0.11 nmol | 3.9 ± 0.1 | – | – | – | – | – | –
c1cnc2c(Nc3cccc4cccnc34)cccc2c1 [Compound 12, Bis(8-quinoline)amine] | – | LZn^II(1/1) | 3.4 nmol | 1.7 nmol | 0.47 ± 0.09 nmol | 3.5 ± 0.1 | >3000 µg | >3000 µg | – | – | – | Log KZn^II ([1]; affinity constant at pH = 7.4, solvent per ligand as in Table 3 column Solvent, Equation 8 (a) or 7 (b)): ≈6; TA98 Mutagenic effect [6]: >3000 µg; degradation of added H2O2 ([3]; Table 7 conditions): none of the added H2O2 is found again
CC(C)(c1ccc2c(Cl)ccc(O)c2n1)c1ccc2c(Cl)ccc(O)c2n1 [Compound 4, 2,2′-(2,2-Propanediyl)-bis(5-chloro-8-hydroxyquinoline)] | 20% | LZn^II(1/1) | 3.4 nmol | 3.3 nmol | 0.37 ± 0.09 nmol | – | – | – | 4.9 ± 0.1 | – | – | –
Oc1cccc2ccc(C(F)(F)c3ccc4cccc(O)c4n3)nc12 [Compound 5, 2,2′-(Difluoromethanediyl)-bis(8-hydroxyquinoline)] | 55% | LZn^II(1/1) | 3.5 nmol | 3.4 nmol | 0.55 ± 0.08 nmol | – | >3000 µg | >3000 µg | 3.8 ± 0.1 | >3000 µg | >3000 µg | –
CC(C)(c1ccc2cccc(O)c2n1)c1ccc2cccc(O)c2n1 [Compound 3, 2,2′-(2,2-propanediyl)-bis(8-hydroxyquinoline)] | 30% | LZn^II(1/1) | 3.7 (3.7) nanomoles | 3.7 (3.7) nanomoles | 0.71 ± 0.02 nmol | – | >3000 µg | >3000 µg | 4.4 ± 0.1 | >3000 µg | >3000 µg | percentage of ZnLs species at equilibrium, competing ligand DTPA [1, 7]: 20%; percentage of ZnLs species at equilibrium, competing ligand EGTA [1, 7]: 100%; percentage of ZnLs species at equilibrium, competing ligand NTA [1, 7]: 100%; percentage of ZnLs species at equilibrium, competing ligand Trien [1, 7]: 100%; % MLs ([1]; Buffer/CH3OH (1/1)): 30%; % MLs ([1]; Buffer/DMSO (2/8)): 35%; % MLs ([1]; Buffer/dioxane (2/8)): 33%; % MLs ([1]; CH3OH): 40%; number of Lc equivalents making it possible to form 50% of ZnLs, Lc = EDTA ([1]; mixture of Ls (15 μM, 1 equivalent) and ZnCl2 (1/1, mol/mol)): 0.7 eq; theoretical value of H2O2 if there is no degradation (in parentheses) ([3]; Aβ1-42 0.2 μM, Cu(II), 3.0 nanomoles H2O2 added just before the ascorbate): 3.7 nmol; H2O2 assayed ([3]; ascorbate 10 μM, 3.0 nanomoles H2O2 added just after ascorbate): 3.8 (3.8) nanomoles; H2O2 assayed ([3]; ascorbate 10 μM, no H2O2 added): 0.84 nmol; H2O2 assayed ([3]; no ascorbate, 3.0 nanomoles H2O2 added): 3.1 nmol; theoretical value of H2O2 if there is no degradation (in parentheses) ([3]; no Aβ1-42, Cu(II), 3.0 nanomoles H2O2 added just after ascorbate): 3.8 (3.8) nanomoles; H2O2 assayed ([4]; 3.0 nanomoles H2O2 added just before the ascorbate): 3.8 nmol
